These results are taken from ChEMBL document CHEMBL1148617, “Design, synthesis, and structure-activity relationships of 1-,3-,8-, and 9-substituted-9-deazaxanthines at the human A2B adenosine receptor” (J Med Chem, 2006).

The inhibition is how much of the control response was suppressed. For orientation: Ki means a measure of affinity in units of concentration, obtained from inhibition or displacement.

Each structure is given as a SMILES string.

The target of assay [1] is T1, Adenosine receptor A2b (Homo sapiens) (UniProt P29275).
T1 sequence (whole entry): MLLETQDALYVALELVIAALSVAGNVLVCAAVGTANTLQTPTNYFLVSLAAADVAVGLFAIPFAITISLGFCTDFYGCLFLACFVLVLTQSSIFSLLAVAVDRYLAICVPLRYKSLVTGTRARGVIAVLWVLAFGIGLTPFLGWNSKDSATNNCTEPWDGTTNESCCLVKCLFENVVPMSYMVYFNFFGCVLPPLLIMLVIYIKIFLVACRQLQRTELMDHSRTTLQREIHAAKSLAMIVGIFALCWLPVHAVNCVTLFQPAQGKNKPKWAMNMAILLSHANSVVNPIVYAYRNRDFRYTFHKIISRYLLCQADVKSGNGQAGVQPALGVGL
The experiment in a line: Displacement of [3H]DPCPX from recombinant human adenosine A2B receptor expressed in HEK293 cells at 0.1 uM. It counts as cell-based. Background: In a radioligand displacement assay an active substance lowers the binding of a labelled ligand.

The target in assay [2] is T2, Adenosine receptor A2a (Homo sapiens, UniProt P29274). As to the kind of experiment: Displacement of [3H]ZM-241385 from recombinant human adenosine A2A receptor expressed in HeLa cells at 0.1 uM.
Assay [3] addresses T2, Adenosine receptor A2a.
Description: Binding affinity to recombinant human adenosine A2A receptor
Another assay addresses T3, Adenosine receptor A2b (Homo sapiens, UniProt P29275).
T3 sequence (P29275 whole entry): T1 sequence (whole entry)

The target in assay [4] is T1, Adenosine receptor A2b (Homo sapiens). The experiment in a line: Displacement of [3H]DPCPX from recombinant human adenosine A2B receptor expressed in HEK293 cells at 0.01 uM.

T2 sequence (P29274 whole entry): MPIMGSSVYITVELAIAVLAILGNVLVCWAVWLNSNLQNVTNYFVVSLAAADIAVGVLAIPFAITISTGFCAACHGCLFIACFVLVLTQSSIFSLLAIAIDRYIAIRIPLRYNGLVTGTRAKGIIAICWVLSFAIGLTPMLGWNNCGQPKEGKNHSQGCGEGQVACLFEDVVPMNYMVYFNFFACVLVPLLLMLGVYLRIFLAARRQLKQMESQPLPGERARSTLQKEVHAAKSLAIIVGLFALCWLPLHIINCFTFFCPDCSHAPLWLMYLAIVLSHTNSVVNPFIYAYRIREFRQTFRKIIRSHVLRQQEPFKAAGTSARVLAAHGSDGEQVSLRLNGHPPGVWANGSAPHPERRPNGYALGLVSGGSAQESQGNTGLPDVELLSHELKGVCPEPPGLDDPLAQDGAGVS

Regarding `CN(Cc1ccccc1)C(=O)COc1ccc(-c2cc3c([nH]2)c(=O)n(C)c(=O)n3C)cc1`, the results for the inhibition (in assay [1]; at Adenosine receptor A2a [2]; in assay [4]) were 67%, 14% and 10%, respectively. Moreover, the Ki was 1020 nM on Adenosine receptor A2a [3] and 55 nM at Adenosine receptor A2b.
As to `CCCn1c(=O)n(C)c(=O)c2[nH]c(-c3ccc(OCC(=O)Nc4ccccc4)cc3)cc21`, the inhibition is 80% in assay [1], 40% at Adenosine receptor A2a [2] and 33% in assay [4]. Besides, the Ki on Adenosine receptor A2a [3] is 195 nM; at Adenosine receptor A2b it was 21.4 nM.
On the same counts, the results for `Cn1c(=O)c2[nH]c(-c3ccc(OCC(=O)NCc4ccc(Cl)cc4)cc3)cc2n(C)c1=O` are 93%, 75%, 61%, 20.4 nM and 4.9 nM.
For `CCCn1c(=O)c2[nH]c(-c3ccc(OCC(=O)Nc4cc(OC)nc(OC)n4)cc3)cc2n(CCC)c1=O`, the inhibition stood at 80% in assay [1], 41% at Adenosine receptor A2a [2] and 30% in assay [4]. Also, the results for the Ki at Adenosine receptor A2a [3] and on Adenosine receptor A2b were 89.1 nM and 11 nM, respectively.
As for `CCCn1c(=O)c2[nH]c(-c3ccc(N(C=O)CC(=O)Nc4ccc(Br)cc4)cc3)cc2n(CCC)c1=O`, the inhibition in assay [1] came to 93%; at Adenosine receptor A2a [2], 90%; in assay [4], 48%. The Ki on Adenosine receptor A2a [3] is 35.5 nM; at Adenosine receptor A2b it was 7.76 nM.
In the case of `CCCn1c(=O)c2[nH]c(-c3ccc(OCC(=O)Nc4ccc(OC)cc4)cc3)c(Cl)c2n(CCC)c1=O`, the inhibition in assay [1] was determined as 70%; on Adenosine receptor A2a [2] it was 45%; in assay [4], 15%. For the same molecule, the Ki is 44.7 nM on Adenosine receptor A2a [3] and 27.5 nM at Adenosine receptor A2b.
`COc1cc(-c2cc3c([nH]2)c(=O)n(C)c(=O)n3C)ccc1OCC(=O)Nc1ccc(C#N)cc1`: the inhibition amounted to 28% in assay [1], 5% on Adenosine receptor A2a [2] and 10% in assay [4]. Further, the values for the Ki on Adenosine receptor A2a [3] and on Adenosine receptor A2b were 575 nM and 214 nM, respectively.
As to `O=C(COc1ccc(-c2cc3c([nH]2)c(=O)n(CC2CC2)c(=O)n3CC2CC2)cc1)Nc1ccccc1`, the inhibition was determined as 96% in assay [1], 93% on Adenosine receptor A2a [2] and 57% in assay [4]. The Ki was 15.5 nM on Adenosine receptor A2a [3] and 4.68 nM on Adenosine receptor A2b.
Taken in the same sequence, the figures for `CCCn1c(=O)c2[nH]c(-c3ccc(OCC(=O)NCc4ccc(F)cc4)cc3)c(Cl)c2n(CCC)c1=O` were 25%, 44%, 8%, 49 nM and 174 nM.
With `CCCn1c(=O)c2[nH]c(-c3ccc(OC(C)C(=O)Nc4ccc(F)cc4)cc3)cc2n(CCC)c1=O` (stereo not given), the inhibition in assay [1] was determined as 88%; on Adenosine receptor A2a [2] it was 51%; in assay [4], 62%. Besides, the Ki at Adenosine receptor A2a [3] was 58.9 nM; at Adenosine receptor A2b, 3.24 nM.
`CCCn1c(=O)c2[nH]c(-c3ccc(OCC(=O)Nc4ccc(OCc5ccccc5)cc4)cc3)cc2n(CCC)c1=O`: the inhibition is 76% in assay [1], 60% at Adenosine receptor A2a [2] and 49% in assay [4]. In addition, the Ki was 18.6 nM at Adenosine receptor A2a [3] and 8.91 nM at Adenosine receptor A2b.
Consider `CCCn1c(=O)c2[nH]c(-c3ccc(OCC(=O)Nc4ccc(C(N)=O)cc4)cc3)cc2n(CCC)c1=O`, for which the results for the inhibition (in assay [1]; on Adenosine receptor A2a [2]; in assay [4]) were 78%, 43% and 16%, respectively. The Ki on Adenosine receptor A2a [3] was 24 nM; at Adenosine receptor A2b, 25.1 nM.
As to `COc1cc(-c2cc3c([nH]2)c(=O)n(C)c(=O)n3C)ccc1OCC(=O)Nc1ccc(Br)cc1`, the inhibition was 78% in assay [1], 32% on Adenosine receptor A2a [2] and 15% in assay [4]. The Ki on Adenosine receptor A2a [3] was 81.3 nM; at Adenosine receptor A2b, 38.9 nM.
On the same counts, the results for `CCCn1c(=O)c2[nH]c(-c3ccc(OCC(=O)Nc4ccccc4Cl)cc3)c(Cl)c2n(CCC)c1=O` are 44%, 23%, 5%, 263 nM and 83.2 nM.
On the same counts, the results for `CCCn1c(=O)c2[nH]c(-c3ccc(OCC(=O)Nc4ccc(C5=NC(C)(C)CO5)cc4)cc3)cc2n(CCC)c1=O` are 67%, 25%, 11%, 91.2 nM and 34.7 nM.
In the case of `Cn1c(=O)c2[nH]c(-c3ccc(OCC(=O)NCc4ccco4)cc3)cc2n(C)c1=O`, the figures for the inhibition (in assay [1]; on Adenosine receptor A2a [2]; in assay [4]) were 52%, 13% and 10%, respectively. The Ki on Adenosine receptor A2a [3] is 316 nM; on Adenosine receptor A2b, 70.8 nM.
On the same counts, the results for `COc1cc(OCC(=O)NCc2ccc(Cl)cc2)ccc1-c1cc2c([nH]1)c(=O)n(C)c(=O)n2C` are 46%, 23%, 11%, 186 nM and 123 nM.
On the same counts, the results for `COc1cc(OCC(=O)Nc2ccccc2)ccc1-c1cc2c([nH]1)c(=O)n(C)c(=O)n2C` are 55%, 13%, 12%, 1050 nM and 69.2 nM.
As to `CCCn1c(=O)c2[nH]c(-c3ccc(OCC(=O)Nc4ccc(OC)nc4)cc3)cc2n(C)c1=O`, the values for the inhibition (in assay [1]; on Adenosine receptor A2a [2]; in assay [4]) were 99%, 30% and 57%, respectively. For the same molecule, the Ki was 132 nM on Adenosine receptor A2a [3] and 3.16 nM at Adenosine receptor A2b.
Consider `CCCn1c(=O)n(C)c(=O)c2[nH]c(-c3ccc(OCC(=O)Nc4ccc(F)cc4)cc3)cc21`, for which the inhibition in assay [1] worked out at 93%; on Adenosine receptor A2a [2], 24%; in assay [4] it was 43%. For the same molecule, the Ki at Adenosine receptor A2a [3] is 112 nM; on Adenosine receptor A2b it was 9.55 nM.
Consider `CCCn1c(=O)c2[nH]c(-c3ccc(OCC(=O)Nc4ccc(C(C)(C)C)cc4)cc3)cc2n(CCC)c1=O`, for which the inhibition in assay [1] is 94%; on Adenosine receptor A2a [2], 47%; in assay [4] it was 51%. The Ki on Adenosine receptor A2a [3] is 79.4 nM; on Adenosine receptor A2b, 7.94 nM.
Consider `CCCn1c(=O)c2[nH]c(-c3ccc(OC(C)C(=O)Nc4ccccc4)cc3)cc2n(CCC)c1=O` (stereo not given), for which the values for the inhibition (in assay [1]; on Adenosine receptor A2a [2]; in assay [4]) were 92%, 42% and 50%, respectively. In addition, the Ki is 105 nM on Adenosine receptor A2a [3] and 5.13 nM on Adenosine receptor A2b.
Taken in the same sequence, the figures for `CCCn1c(=O)c2[nH]c(-c3ccc(OC(C)C(=O)NCc4ccc(Cl)cc4)cc3)cc2n(CCC)c1=O` (stereo not given) were 94%, 57%, 55%, 46.8 nM and 4.07 nM.
With `CCCn1c(=O)c2[nH]c(-c3ccc(OCC(=O)Nc4ccc(Br)cc4)cc3)cc2n(CCC)c1=O`, the inhibition in assay [1] amounted to 97%; at Adenosine receptor A2a [2], 54%; in assay [4], 66%. Also, the Ki at Adenosine receptor A2a [3] is 30.9 nM; on Adenosine receptor A2b it was 2.19 nM.
As for `COc1cc(-c2cc3c([nH]2)c(=O)n(C)c(=O)n3C)ccc1OCC(=O)NCc1ccc(Cl)cc1`, the inhibition in assay [1] stood at 43%; at Adenosine receptor A2a [2], 23%; in assay [4] it was 5%. The Ki at Adenosine receptor A2a [3] is 158 nM; at Adenosine receptor A2b, 186 nM.
